{
  "source": "patent US20100148126A1",
  "about": "(priority 2008, published 2010)",
  "data": [
    {"molecular_target": "wild-type αHL protein pore (Staphylococcus aureus, UniProt P09616)", "sequence (P09616 27-319 limits assumed)": "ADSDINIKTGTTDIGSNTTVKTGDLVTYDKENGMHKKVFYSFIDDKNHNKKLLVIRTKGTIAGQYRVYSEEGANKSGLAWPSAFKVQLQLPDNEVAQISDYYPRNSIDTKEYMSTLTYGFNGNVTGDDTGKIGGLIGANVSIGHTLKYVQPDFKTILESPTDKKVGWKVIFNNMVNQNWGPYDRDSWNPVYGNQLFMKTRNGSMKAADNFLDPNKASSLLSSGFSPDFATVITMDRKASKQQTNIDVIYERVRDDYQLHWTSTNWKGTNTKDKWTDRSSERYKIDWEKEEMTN", "assay_type": "binding", "units": {"mean amplitude of analyte-boromycin complex events": "pA", "τoff (mean dwell time) of analyte-boromycin complex": "ms", "increase of event mean dwell time in BMIM-Cl versus NaCl": "fold"}, "values": [
      {"compound": "CCN(CC)CC.Cl", "note": "[TEA, triethylammonium chloride]", "mean amplitude of analyte-boromycin complex events": "33.7±0.4", "τoff (mean dwell time) of analyte-boromycin complex": "60.6 ± 1.9"},
      {"compound": "KCl [K^+]", "mean amplitude of analyte-boromycin complex events": "33.6±0.3", "τoff (mean dwell time) of analyte-boromycin complex": "52.1 ± 0.3"},
      {"compound": "NH4Cl [NH4^+]", "mean amplitude of analyte-boromycin complex events": "33.7±0.2", "τoff (mean dwell time) of analyte-boromycin complex": "75.0 ± 1.6"},
      {"compound": "boromycin", "increase of event mean dwell time in BMIM-Cl versus NaCl": 2.6},
      {"compound": "CCNCC.Cl", "note": "[DEA, diethylammonium chloride]", "mean amplitude of analyte-boromycin complex events": "33.6±0.8", "τoff (mean dwell time) of analyte-boromycin complex": "40.5 ± 0.5"},
      {"compound": "Cl.ClCCN1CCOCC1", "note": "[CM, 4-(2-chloroethyl)morpholine hydrochloride]", "mean amplitude of analyte-boromycin complex events": "33.5±1.2", "τoff (mean dwell time) of analyte-boromycin complex": "34.7 ± 0.6"}
    ]}
  ]
}
